# According to publication PMC10197068 (Bioconjugate Chemistry, 2023):
# “And” between values parts separate entries of the source, which are not always exact repeats. Identical values can stand only once.
# What was measured:
# [1] = tested on: G2T6 (DNA, G4) AGGGTTAGGGTTAGGGTTAGGGTTATTATTATTATTATTAGGGTTAGGGTTAGGGTTAGGG; experiment: CD melting at 295 nm; conditions: 100 mM NaCl; 10 mM Li cacodylate, pH 7.3; 12 μM compound, 3 μM DNA
# [2] = tested on: G2T1 (DNA, G4) AGGGTTAGGGTTAGGGTTAGGGTTAGGGTTAGGGTTAGGGTTAGGG; experiment: CD melting at 295 nm; conditions: 100 mM NaCl, 10 mM Li cacodylate, pH 7.3, 3 μM DNA
# [3] = tested on: G2T6 (Na+) dimeric HTelo G4 DNA, AGGG(TTAGGG)3(TTA)5(TTAGGG)4; experiment: CD melting with G2T6 (Na+); assay type: binding, human; conditions: CD melting at 295 nm, 25 to 95 °C at 2 °C/min; 100 mM NaCl, 10 mM Li cacodylate, pH 7.3; [G4 unit] 6 μM (3 μM dimeric sequence), [salphen unit] 12 μM
# Protocol: (§1) Next, the DNA binding properties of the monomeric and dimeric compounds were studied. […] The following notation is used: […] The CD melting experiments were conducted solely with Na^+ stabilized DNA, which forms an antiparallel topology in solution (cf., in the presence of K^+ a mixture of topologies is observed). During the assay the temperature was increased from 25 to 95 °C upon which the intensity of signals with negative ellipticity at ca. 265 nm and positive ellipticity at ca. 295 (characteristic of an antiparallel G4 structure) decreased-see Figure 4a. This indicates the expected unfolding of the G4 DNA structure as the temperature increases. The changes in intensity were subsequently used to produce the corresponding melting curves (Figure 4b) for each sequence in the absence and presence of the different compounds under study. From these curves, the ΔTm values for the different sequences and compounds were determined, and the results are summarized in Figure 4c (see Supplementary Table 1 for values). […] G-Quadruplex oligonucleotides were purchased from Eurogentec (Belgium), and CT-DNA was purchased from Sigma-Aldrich. […] Prior to use, the DNA stock solutions were annealed by heating at 95 °C for 5 min and then cooling to room temperature overnight. Experiments were carried out on a Jasco J-810 spectrophotometer using a 1 cm quartz cuvette. Temperature was controlled using a Peltier module. The signal at 295 nm was monitored as temperature was increased for 25 to 95 °C at a rate of 2 °C/min. CD melting experiments were carried out with the appropriate G4 DNA (100 mM NaCl, 10 mM Li cacodylate, pH 7.3). Sample preparation was carried out by combining stock solutions of ligand and DNA in the appropriate buffer. […] Melting temperatures were obtained by curve fitting in Graphpad Prism 8. The data was normalized and fitted to a variable slope Hill equation, and the melting temperature was defined at the temperature at which y = 0.5.
# [4] = tested on: G1 (Na+) monomeric HTelo G4 DNA; experiment: Emission titration with G1 (Na+); assay type: binding, human; conditions: Table S2, unit not given, ligand 2 μM, 100 mM NaCl, 10 mM Li cacodylate, pH 7.3, exc 440 nm, em 590 nm, triplicate
# Protocol: (§2) Next, emission titrations were carried out with the emissive Pt^II compounds M2 and D3–8 and G4/duplex DNA to obtain association constants. Both Na^+ and K^+ stabilized monomeric and dimeric G4 DNA were investigated. Additionally, titrations were carried out with CT-DNA to evaluate the selectivity for G4 versus duplex DNA. Figure 5 summarizes the obtained results (see Figures S24–S37 and Table S2 for a full set of titration data). First discussed are the experiments conducted in Na^+ buffer, in which the G4 topology formed is antiparallel.[41] […] As discussed previously, this could potentially be caused by a “sandwiched” binding mode in which the metal-salphen complex sits between two G-quadruplex units. For dimeric metal-salphen complexes D3–8, however, there are several differences when compared to the CD melting studies. […] Upon increasing the linker length to a two-amino-acid sequence (RR and KK for compounds D4 and D5, respectively), larger Ka values were obtained with minimal change to the pattern of selectivity. […] Increasing the linker length to an eight-amino-acid sequence (RRRRRRRR) led to a similar stabilization of G2T6, while G1 stabilization increased.
# (§3) G-Quadruplex oligonucleotides were purchased from Eurogentec (Belgium), and CT-DNA was purchased from Sigma-Aldrich. Stock solutions were prepared via dilution in the appropriate buffers to concentrations of 300–400 μM determined by UV–vis measurements in which increasing amounts of DNA were added to a cuvette and the absorbance at 260 nm recorded using an Agilent Cary UV 60 spectrometer. Prior to use, the DNA stock solutions were annealed by heating at 95 °C for 5 min and then cooling to room temperature overnight.
# (§4) Experiments were carried out using a BMG Clariostar Microplate reader with Greiner Bio-One half-volume (100 μL/well) plates. Excitation was carried out at 440 nm and recorded from 500 to 700 nm in addition to a matrix scan at 590 nm. Titrations were carried out using G1, G2T1, and G2T6 (Na^+) G4 DNA (100 mM NaCl, 10 mM Li cacodylate, pH 7.3); G1, G2T1, and G2T6 (K^+) G4 DNA (100 mM KCl, 10 mM Li cacodylate, pH 7.3); and CT-DNA (100 mM KCl, 10 mM Li cacodylate, pH 7.3). Ligand concentration was kept constant at 2 μM, and the following DNA equivalents were tested: 0, 0.1, 0.2, 0.3, 0.4, 0.5, 0.75, 1, 1.5, 2, 3, and 5 (for CT-DNA 10× base pair equivalents were used, i.e., 1 to 50 BPE). Sample preparation was carried out by preparing stock solutions of double concentration ligand (4 μM) and DNA in the appropriate buffer, before 50 μL of each was added to the appropriate well and mixed. Experiments were conducted in triplicate and binding constants were obtained by curve fitting in Graphpad Prism 8 using eq 1.[46] [drawing 1] 1
# (§5) Fluorescence response (y) was fitted against DNA concentration (x); R is the machine response, K is the association constant of ligand and DNA, L is the concentration of ligand, and n is the number of binding sites per DNA. The values of L and n were varied so that that the L was equal to the number of salphen units and n was equal to the number of G4 faces per DNA. The matrix scan results were used to plot the titration curves and 500–700 nm scan results were used to confirm that expected curve shapes and shifts were observed.
# [5] = tested on: G2T6 (K+) dimeric HTelo G4 DNA; experiment: Emission titration with G2T6 (K+); assay type: binding, human; conditions: Table S2, unit not given, ligand 2 μM, 100 mM KCl, 10 mM Li cacodylate, pH 7.3, exc 440 nm, em 590 nm, triplicate
# Protocol: as §2, §3, §4, §5
# [6] = tested on: G2T1 (Na+) dimeric HTelo G4 DNA; experiment: Emission titration with G2T1 (Na+); assay type: binding, human; conditions: Table S2, unit not given, ligand 2 μM, 100 mM NaCl, 10 mM Li cacodylate, pH 7.3, exc 440 nm, em 590 nm, triplicate
# Protocol: as §2, §3, §4, §5
# [7] = tested on: G1 (K+) monomeric HTelo G4 DNA; experiment: Emission titration with G1 (K+); assay type: binding, human; conditions: Table S2, unit not given, ligand 2 μM, 100 mM KCl, 10 mM Li cacodylate, pH 7.3, exc 440 nm, em 590 nm, triplicate
# Protocol: as §2, §3, §4, §5
# [8] = tested on: G1 (Na+) monomeric HTelo G4 DNA, AGGG(TTAGGG)3; experiment: CD melting with G1 (Na+); assay type: binding, human; conditions: CD melting at 295 nm, 25 to 95 °C at 2 °C/min; 100 mM NaCl, 10 mM Li cacodylate, pH 7.3; [G4 unit] 6 μM, [salphen unit] 12 μM
# Protocol: as §1
# [9] = tested on: G2T1 (K+) dimeric HTelo G4 DNA; experiment: Emission titration with G2T1 (K+); assay type: binding, human; conditions: Table S2, unit not given, ligand 2 μM, 100 mM KCl, 10 mM Li cacodylate, pH 7.3, exc 440 nm, em 590 nm, triplicate
# Protocol: as §2, §3, §4, §5
# [10] = tested on: CT-DNA (duplex DNA); experiment: Emission titration with duplex DNA; assay type: binding; conditions: CT-DNA up to 50 base pair equivalents; 100 mM KCl, 10 mM Li cacodylate, pH 7.3; ligand 2 μM
# Protocol: Next, emission titrations were carried out with the emissive Pt^II compounds M2 and D3–8 and G4/duplex DNA to obtain association constants. Both Na^+ and K^+ stabilized monomeric and dimeric G4 DNA were investigated. Additionally, titrations were carried out with CT-DNA to evaluate the selectivity for G4 versus duplex DNA. Figure 5 summarizes the obtained results (see Figures S24–S37 and Table S2 for a full set of titration data). First discussed are the experiments conducted in Na^+ buffer, in which the G4 topology formed is antiparallel.[41] […] As discussed previously, this could potentially be caused by a “sandwiched” binding mode in which the metal-salphen complex sits between two G-quadruplex units. For dimeric metal-salphen complexes D3–8, however, there are several differences when compared to the CD melting studies. […] Upon increasing the linker length to a two-amino-acid sequence (RR and KK for compounds D4 and D5, respectively), larger Ka values were obtained with minimal change to the pattern of selectivity. […] Increasing the linker length to an eight-amino-acid sequence (RRRRRRRR) led to a similar stabilization of G2T6, while G1 stabilization increased. […]
# as §3, with “Prior to use, the DNA stock solutions were annealed by heating at 95 °C for 5 min and then cooling to room temperature overnight.” left out
# Experiments were carried out using a BMG Clariostar Microplate reader with Greiner Bio-One half-volume (100 μL/well) plates. Excitation was carried out at 440 nm and recorded from 500 to 700 nm in addition to a matrix scan at 590 nm. […]
# Fluorescence response (y) was fitted against DNA concentration (x); R is the machine response, K is the association constant of ligand and DNA, L is the concentration of ligand, and n is the number of binding sites per DNA. […]
# [11] = tested on: G2T1 (Na+) dimeric HTelo G4 DNA, AGGG(TTAGGG)7; experiment: CD melting with G2T1 (Na+); assay type: binding, human; conditions: CD melting at 295 nm, 25 to 95 °C at 2 °C/min; 100 mM NaCl, 10 mM Li cacodylate, pH 7.3; [G4 unit] 6 μM (3 μM dimeric sequence), [salphen unit] 12 μM
# Protocol: as §1
# [12] = tested on: G2T6 (Na+) dimeric HTelo G4 DNA; experiment: Emission titration with G2T6 (Na+); assay type: binding, human; conditions: Table S2, unit not given, ligand 2 μM, 100 mM NaCl, 10 mM Li cacodylate, pH 7.3, exc 440 nm, em 590 nm, triplicate
# Protocol: as §2, §3, §4, §5
ΔTm [1] [°C],ΔTm ([2]; 12 μM compound) [°C],SMILES,ΔTm G2T6 (Na+) [3],ΔTm G1 (Na+) [8] [°C],ΔTm G2T1 (Na+) [11],other results
17,16,C[N+](C)(C)CCOc1ccc(C=Nc2ccccc2N=Cc2ccc(OCC[N+](C)(C)C)cc2[O-])c([O-])c1.[Ni+2],,,,
,,"C[N+](C)(C)CCOc1ccc2c(c1)[O][Pt][O]c1cc(OCC[N+](C)(C)C)ccc1C=Nc1ccccc1N=C2 [Compound M2, reference compound]",19.55 °C and 19 °C,12.72,21.67 °C and 21 °C,"Association constant G1 (Na+), mean [4]: 1.70; Association constant G2T6 (K+), mean [5]: 1.44; Association constant G2T1 (Na+), mean [6]: 1.70; Association constant G1 (K+), mean [7]: 2.00; Association constant G2T1 (K+), mean [9]: 0.80; Ka for duplex DNA [10]: 7.31 × 10^4 M^–1; Association constant G2T6 (Na+), mean [12]: 2.93"
,,C[N+](C)(C)CCOc1ccc(C=Nc2ccc(C(=O)NCc3cn(CC(=O)N[C@@H](CCCNC(=N)N)C(=O)N[C@@H](CCCNC(=N)N)C(=O)N[C@@H](Cn4cc(CNC(=O)c5ccc(N=Cc6ccc(OCC[N+](C)(C)C)cc6[O-])c(N=Cc6ccc(OCC[N+](C)(C)C)cc6[O-])c5)nn4)C(N)=O)nn3)cc2N=Cc2ccc(OCC[N+](C)(C)C)cc2[O-])c([O-])c1.[Pt+2].[Pt+2],,,,ΔTm ([2]; 6 μM compound (12 μM salphen units)): 14.6 °C
,,"C[N+](C)(C)CCOc1ccc2c(c1)[O][Ni][O]c1cc(OCC[N+](C)(C)C)ccc1C=Nc1ccccc1N=C2 [Compound M1, reference compound]",18.77 °C,12.26,16.58 °C and 16 °C,
19,21,C[N+](C)(C)CCOc1ccc(C=Nc2ccccc2N=Cc2ccc(OCC[N+](C)(C)C)cc2[O-])c([O-])c1.[Pt+2],,,,
